Paper PMC9582717 (The Journal of Biological Chemistry, 2022)

Biological target: T1, SmChiP (chitoporin) (Serratia marcescens, UniProt I7GPX7)
T1 sequence (I7GPX7 28-467): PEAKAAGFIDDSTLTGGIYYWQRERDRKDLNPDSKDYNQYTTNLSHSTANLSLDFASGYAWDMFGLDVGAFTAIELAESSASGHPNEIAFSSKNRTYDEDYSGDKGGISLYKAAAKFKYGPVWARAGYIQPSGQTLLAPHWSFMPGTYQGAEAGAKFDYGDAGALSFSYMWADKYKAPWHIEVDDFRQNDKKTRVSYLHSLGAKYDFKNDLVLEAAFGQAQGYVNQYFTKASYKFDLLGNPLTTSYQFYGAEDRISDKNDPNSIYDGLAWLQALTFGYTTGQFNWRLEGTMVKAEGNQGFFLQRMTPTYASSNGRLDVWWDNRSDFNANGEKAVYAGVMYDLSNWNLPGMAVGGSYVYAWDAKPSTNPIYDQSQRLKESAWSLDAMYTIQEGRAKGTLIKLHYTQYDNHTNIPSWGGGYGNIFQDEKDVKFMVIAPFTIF
Assay: isothermal titration calorimetry
Settings: detergent-solubilized protein; one-site binding model

| Kd [µM] | Compound |
| --- | --- |
| 17 ± 0.6 | CC(=O)N[C@H]1[C@H](O[C@H]2[C@H](O)[C@@H](NC(C)=O)[C@H](O[C@H]3[C@H](O)[C@@H](NC(C)=O)C(O)O[C@@H]3CO)O[C@@H]2CO)O[C@H](CO)[C@@H](O[C@@H]2O[C@H](CO)[C@@H](O[C@@H]3O[C@H](CO)[C@@H](O[C@@H]4O[C@H](CO)[C@@H](O)[C@H](O)[C@H]4NC(C)=O)[C@H](O)[C@H]3NC(C)=O)[C@H](O)[C@H]2NC(C)=O)[C@@H]1O (some centres unmarked) [chitohexaose] |
| 23 ± 2 | CC(=O)N[C@H]1[C@H](O[C@H]2[C@H](O)[C@@H](NC(C)=O)[C@H](O[C@H]3[C@H](O)[C@@H](NC(C)=O)C(O)O[C@@H]3CO)O[C@@H]2CO)O[C@H](CO)[C@@H](O[C@@H]2O[C@H](CO)[C@@H](O[C@@H]3O[C@H](CO)[C@@H](O)[C@H](O)[C@H]3NC(C)=O)[C@H](O)[C@H]2NC(C)=O)[C@@H]1O (some centres unmarked) [chitopentaose] |
